Read-outs that look alike come from different tables or passages of the source.
Target: T1, Syk (Homo sapiens, UniProt P43405)
T1 construct: purchased Carna Biosciences
Assay: Syk HTRF assay
Type: biochemical
Procedure, shortened: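 HTRF kinase assay in HEPES pH 7.6 buffer with MgCl2, DTT and Triton X100; start mix of 87.5 μM ATP and 80 nM biotinylated peptide, 1 h at room temperature. EDTA stop, then Eu-anti-phosphotyrosine/streptavidin-DyLight 647 detection, read as 665/615 nm emission ratio.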

[1] = IC50 activity level, read-out: Activity Level
[2] = read-out: Activity Level (Syk HTRF assay IC50)
[3] = activity levels A-D, read-out: Activity Level (IC50 in the Syk HTRF assay)

CC(=O)Nc1cccc2nc(Nc3ccccc3)nn12 [Example 527, N-(2-(phenylamino)-[1,2,4]triazolo[1,5-a]pyridin-5-yl)acetamide]
IC50 [1]: 500 to 1000 nM

Oc1cccc(-c2cccc3nc(Nc4ccc(N5CCOCC5)cc4)nn23)c1 [compound 32, 3-(2-(4-morpholinophenylamino)-[1,2,4]triazolo[1,5-a]pyridin-5-yl)phenol]
IC50 [2]: 0.005 to 250 nM

NC(=O)c1ccc(Nc2nc3cccc(NC4CCCCC4)n3n2)cc1 [Example 560, 4-(5-(cyclohexylamino)-[1,2,4]triazolo[1,5-a]pyridin-2-ylamino)benzamide]
IC50 [1]: 500 to 1000 nM

CC1C(=O)NCCN1Cc1cccc2nc(Nc3ccc(C(F)(F)F)cc3)nn12 (stereo not shown) [Example 281, 3-methyl-4-((2-(4-(trifluoromethyl)phenylamino)-[1,2,4]triazolo[1,5-a]pyridin-5-yl)methyl)piperazin-2-one]
IC50 [3]: 0.005 to 250 nM

Cn1cnc2ccc(Nc3nc4cccc(-c5cccc(F)c5)n4n3)cc21 [compound 4]
IC50 [2]: 0.005 to 250 nM

Cc1n[nH]c2cc(Nc3nc4cccc(C(O)C5CCOCC5)n4n3)ccc12 (stereo not shown) [Example 200, (2-(3-methyl-1H-indazol-6-ylamino)-[1,2,4]triazolo[1,5-a]pyridin-5-yl)(tetrahydro-2H-pyran-4-yl)methanol]
IC50 [3]: 500 to 1000 nM

CNC(=O)c1ccc(Nc2nc3cccc(N[C@H]4CC[C@H](O)CC4)n3n2)cc1 (stereo in doubt) [Example 387, trans-4-(5-(4-hydroxycyclohexylamino)-[1,2,4]triazolo[1,5-a]pyridin-2-ylamino)-N-methylbenzamide]
IC50 [3]: 1000 to 10000 nM

Cc1cc(Nc2nc3cccc(N[C@H]4CC[C@@H](O)CC4)n3n2)cc(C)c1F [Example 279, cis-4-(2-(4-fluoro-3,5-dimethylphenylamino)-[1,2,4]triazolo[1,5-a]pyridin-5-ylamino)cyclohexanol]
IC50 [3]: 0.005 to 250 nM

NC(=O)c1ccc(Nc2nc3cccc(N[C@H]4CC[C@@H](O)CC4)n3n2)cc1F [Example 347, cis-2-fluoro-4-(5-(4-hydroxycyclohexylamino)-[1,2,4]triazolo[1,5-a]pyridin-2-ylamino)benzamide]
IC50 [3]: 0.005 to 250 nM

O[C@H]1CC[C@@H](Nc2cccc3nc(Nc4ccc(N5CCOCC5)nc4)nn23)CC1 [Example 313, cis-4-(2-(6-morpholinopyridin-3-ylamino)-[1,2,4]triazolo[1,5-a]pyridin-5-ylamino)cyclohexanol]
IC50 [3]: 0.005 to 250 nM

c1ccc(Cc2cccc3nc(Nc4ccccc4)nn23)cc1 [Example 506, 5-benzyl-N-phenyl-[1,2,4]triazolo[1,5-a]pyridin-2-amine]
IC50 [1]: 1000 to 10000 nM

Cc1cccc(Nc2nc3cccc(N[C@H]4CC[C@@H](O)CC4)n3n2)c1 [Example 350, cis-4-(2-(m-tolylamino)-[1,2,4]triazolo[1,5-a]pyridin-5-ylamino)cyclohexanol]
IC50 [3]: 0.005 to 250 nM

O[C@@H]1CCC[C@@H](Nc2cccc3nc(Nc4ccc(C(F)(F)F)cc4)nn23)C1 (single isomer, unassigned; enantiomer 2) [Example 224, cis-3-(2-(4-(trifluoromethyl)phenylamino)-[1,2,4]triazolo[1,5-a]pyridin-5-ylamino)cyclohexanol (enantiomer 2)]
IC50 [3]: 1000 to 10000 nM

FC(F)(F)c1ccc(Nc2nc3cccc(N[C@H]4CCCNC4)n3n2)cc1 [Example 469, (S)-N^5-(piperidin-3-yl)-N^2-(4-(trifluoromethyl)phenyl)-[1,2,4]triazolo[1,5-a]pyridin-2,5-diamine]
IC50 [1]: 0.005 to 250 nM

Cc1conc1-c1cccc2nc(Nc3ccccc3)nn12 [Example 435, 5-(4-methylisoxazol-3-yl)-N-phenyl-[1,2,4]triazolo[1,5-a]pyridin-2-amine]
IC50 [1]: 1000 to 10000 nM

N#Cc1ccc(Nc2nc3cccc(N[C@H]4CC[C@@H](O)CC4)n3n2)cn1 [Example 381]
IC50 [3]: 1000 to 10000 nM

OC1CCC(Nc2cccc3nc(Nc4ccccc4)nn23)CC1 (stereo in doubt) [Example 470, trans-4-(2-(phenylamino)-[1,2,4]triazolo[1,5-a]pyridin-5-ylamino)cyclohexanol]
IC50 [1]: 1000 to 10000 nM

CC1(C)C(=O)Nc2cc(Nc3nc4cccc(N[C@H]5CC[C@@H](O)CC5)n4n3)ccc21 [Example 202, cis-6-(5-(4-hydroxycyclohexylamino)-[1,2,4]triazolo[1,5-a]pyridin-2-ylamino)-3,3-dimethylindolin-2-one]
IC50 [3]: 0.005 to 250 nM

CNC(=O)c1ccc(Nc2nc3cccc(C[C@H]4CC[C@@H](O)C4)n3n2)cc1 (single isomer, unassigned; diastereomer 2) [Example 214, 4-(5-((3-hydroxycyclopentyl)methyl)-[1,2,4]triazolo[1,5-a]pyrridin-2-ylamino)-N-methylbenzamide (diastereomer 2)]
IC50 [3]: 1000 to 10000 nM

NCCN1Cc2cc(-c3cccc4nc(Nc5ccccc5)nn34)ccc2C1=O [Example 494, 2-(2-aminoethyl)-5-(2-(phenylamino)-[1,2,4]triazolo[1,5-a]pyridin-5-yl)isoindolin-1-one]
IC50 [1]: 500 to 1000 nM

CNC(=O)c1ccc(Nc2nc3cccc(CC4CCNC4)n3n2)cc1 (stereo not shown) [Example 267, N-methyl-4-(5-(pyrrolidin-3-ylmethyl)-[1,2,4]triazolo[1,5-a]pyridin-2-ylamino)benzamide]
IC50 [3]: 500 to 1000 nM

OCc1nc2ccc(Nc3nc4cccc(-c5cccc(F)c5)n4n3)cc2[nH]1 [compound 3, (6-(5-(3-fluorophenyl)-[1,2,4]triazolo[1,5-a]pyridin-2-ylamino)-1H-benzo[d]imidazol-2-yl)methanol]
IC50 [2]: 0.005 to 250 nM

NCCOc1cccc2nc(Nc3ccc(C(F)(F)F)cc3)nn12 [Example 296, 5-(2-aminoethoxy)-N-(4-(trifluoromethyl)phenyl)-[1,2,4]triazolo[1,5-a]pyridin-2-amine]
IC50 [3]: 500 to 1000 nM

COc1ccccc1Nc1nc2cccc(N[C@H]3CC[C@@H](O)CC3)n2n1 [Example 339, cis-4-(2-(2-methoxyphenylamino)-[1,2,4]triazolo[1,5-a]pyridin-5-ylamino)cyclohexanol]
IC50 [3]: 1000 to 10000 nM

CC1(C)C(=O)Nc2cc(Nc3nc4cccc(N[C@H]5CC[C@H](O)CC5)n4n3)ccc21 (stereo in doubt) [Example 175, trans-6-(5-(4-hydroxycyclohexylamino)-[1,2,4]triazolo[1,5-a]pyridin-2-ylamino)-3,3-dimethylindolin-2-one]
IC50 [2]: 0.005 to 250 nM

O[C@H]1CC[C@@H](Nc2cccc3nc(Nc4cnc5cn[nH]c5c4)nn23)CC1 [compound 107]
IC50 [2]: 0.005 to 250 nM

O[C@H]1CC[C@@H](Nc2cccc3nc(Nc4ccccn4)nn23)CC1 [Example 349, cis-4-(2-(pyridin-2-ylamino)-[1,2,4]triazolo[1,5-a]pyridin-5-ylamino)cyclohexanol]
IC50 [3]: 1000 to 10000 nM

Cn1ncc2cc(Nc3nc4cccc(N[C@H]5CC[C@@H](O)CC5)n4n3)ccc21 [Example 236, cis-4-(2-(1-methyl-1H-indazol-5-ylamino)-[1,2,4]triazolo[1,5-a]pyridin-5-ylamino)cyclohexanol]
IC50 [3]: 0.005 to 250 nM

Cc1cc(Nc2nc3cccc(CC4CCOCC4)n3n2)cc2c1cnn2C [Example 147, N-(1,4-dimethyl-1H-indazol-6-yl)-5-((tetrahydro-2H-pyran-4-yl)methyl)-[1,2,4]triazolo[1,5-a]pyridin-2-amine]
IC50 [2]: 0.005 to 250 nM

NC(=O)c1ccc(Nc2nc3cccc(-c4cccc(O)c4)n3n2)cc1 [compound 64, 4-(5-(3-hydroxyphenyl)-[1,2,4]triazolo[1,5-a]pyridin-2-ylamino)benzamide]
IC50 [2]: 0.005 to 250 nM

c1ccc(Nc2nc3cccc(-c4cccnc4)n3n2)cc1 [Example 524, N-phenyl-5-(pyridin-3-yl)-[1,2,4]triazolo[1,5-a]pyridin-2-amine]
IC50 [1]: 1000 to 10000 nM

CC(C)C(=O)Nc1cccc2nc(Nc3ccccc3)nn12 [Example 526, N-(2-(phenylamino)-[1,2,4]triazolo[1,5-a]pyridin-5-yl)isobutyramide]
IC50 [1]: 1000 to 10000 nM

Oc1cccc(-c2cccc3nc(Nc4ccc(-c5ncc[nH]5)cc4)nn23)c1 [compound 16, 3-(2-(4-(1H-imidazol-2-yl)phenylamino)-[1,2,4]triazolo[1,5-a]pyridin-5-yl)phenol]
IC50 [2]: 0.005 to 250 nM

c1ccc(Nc2nc3cccc(C4CCNCC4)n3n2)cc1 [Example 512, N-phenyl-5-(piperidin-4-yl)-[1,2,4]triazolo[1,5-a]pyridin-2-amine]
IC50 [1]: 1000 to 10000 nM

OCCOc1cccc2nc(Nc3ccc(C(F)(F)F)cc3)nn12 [Example 315, 2-(2-(4-(trifluoromethyl)phenylamino)-[1,2,4]triazolo[1,5-a]pyridin-5-yloxy)ethanol]
IC50 [3]: 1000 to 10000 nM

Cc1n[nH]c2cc(Nc3nc4cccc(Cc5cc[nH]c(=O)c5)n4n3)ccc12 [Example 183, 4-((2-(3-methyl-1H-indazol-6-ylamino)-[1,2,4]triazolo[1,5-a]pyridin-5-yl)methyl)pyridin-2(1H)-one]
IC50 [2]: 0.005 to 250 nM

Cn1ncc2ccc(Nc3nc4cccc(N[C@H]5CC[C@@H](O)CC5)n4n3)cc21 [Example 364, cis-4-(2-(1-methyl-1H-indazol-6-ylamino)-[1,2,4]triazolo[1,5-a]pyridin-5-ylamino)cyclohexanol]
IC50 [3]: 0.005 to 250 nM

CN1CCC(NC(=O)c2ccc(Nc3nc4cccc(-c5cccc(O)c5)n4n3)cc2)CC1 [compound 34, 4-(5-(3-hydroxyphenyl)-[1,2,4]triazolo[1,5-a]pyridin-2-ylamino)-N-(1-methylpiperidin-4-yl)benzamide]
IC50 [2]: 0.005 to 250 nM

Cc1cc(Nc2nc3cccc(N[C@H]4CC[C@@H](O)CC4)n3n2)cc(C)n1 [Example 261, cis-4-(2-(2,6-dimethylpyridin-4-ylamino)-[1,2,4]triazolo[1,5-a]pyridin-5-ylamino)cyclohexanol]
IC50 [3]: 500 to 1000 nM

CN(c1cccc2nc(Nc3ccc4c(c3)NC(=O)C4(C)C)nn12)C1CCOC1 (stereo in doubt) [compound 121, (S)-3,3-dimethyl-6-(5-(methyl(tetrahydrofuran-3-yl)amino)-[1,2,4]triazolo[1,5-a]pyridin-2-ylamino)indolin-2-one]
IC50 [2]: 0.005 to 250 nM

— patent US8299056B2 (Signal Pharmaceuticals, LLC, priority 2008, dated 2012)
